Measured values taken from patent publication US9439857B2, “Foam containing benzoyl peroxide” (Foamix Pharmaceuticals Ltd., priority 2007, dated 2016).

Test system: skin hydration level
Experiment: Skin hydration, Corneometer CM 825
Type: in vivo, human
Conditions: BPO-047 variants, 8% glycerin, 2% sodium PCA
Method: Healthy subjects were applied with single dose of formulations as shown in Example 14. Skin hydration is measured using a Corneometer® CM 825 instrument. (Courage+Khazaka, Koln, Germany). The measuring principle of the Corneometer® CM 825 is based on capacitance measurement of dielectric medium. Any change in the dielectric constant due to skin surface hydration alters the capacitance of a measuring capacitor. It is capable of detecting even slight changes in the skin hydration level.
Skin hydration level is assessed at baseline (fifteen minutes after each subject washed the left and right forearms) with the Corneometer® CM 825. The formulations are applied in designated chambers under occlusion for 6 hours which are then removed and the skin cleaned. Hydration is then measured one hour later.
Study protocol: The study was performed in a temperature controlled room (20-24° C.). Subjects washed their arms with water (no soap) and dried their arms with dry paper towel. Formulations were applied using test chambers. The location of each chamber within the stripe was marked once applied (maximum of 3 stripes on each arm). Each stripe contained only one formulation. One stripe served as a control, non treated area. […] Skin hydration level was assessed at baseline T=0 (minimum 15 minutes following rinse), using the Corneometer® CM 825, and tested based on study design. […]

| SMILES | hydration effect (Corneometer) |
| --- | --- |
| OCC(O)CO [glycerin] | main contributor to the hydration effect |
| O=C1CCC(C(=O)[O-])N1.[Na+] (centres unmarked) [Sodium PCA, sodium salt of 2-pyrrolidone-5-carboxylic acid] | increases hydration but to a lesser extent |
